ChEMBL document CHEMBL4270595, “Design, synthesis, antiproliferative activity, molecular docking and cell cycle analysis of some novel (morpholinosulfonyl) isatins with potential EGFR inhibitory activity” (Eur J Med Chem, 2018)
Active and inactive are the calls of the source. No cut-off for these calls is given here.

Legend:
HCT-116 = assay: Cytotoxicity against human HCT116 cells after 24 hrs by SRB assay; assay type: functional, cell-based; conditions: HCT-116, 24 h
WI-38 = assay: Cytotoxicity against human WI38 cells after 24 hrs by SRB assay; assay type: cell-based; conditions: WI-38, 24 h
[1] = Cytotoxicity against human Caco cells after 24 hrs by SRB assay; assay type: functional, cell-based
HepG2 [2] = assay: Cytotoxicity against human HepG2 cells after 24 hrs by SRB assay; assay type: functional, cell-based; conditions: HepG2, 24 h
MCF7 = assay: Cytotoxicity against human MCF7 cells after 24 hrs by SRB assay; assay type: functional, cell-based; conditions: MCF7, 24 h
[3] = target: T1, Epidermal growth factor receptor (Homo sapiens, UniProt P00533); assay: Inhibition of EGFR in human HepG2 cells; assay type: cell-based
HepG2 [4] = assay: Cell cycle arrest in human HepG2 cells assessed as accumulation of cells at pre-G1 phase at 10 uM after 24 hrs by flow cytometric analysis (reference value: 2.04%); assay type: functional
HepG2 [5] = assay: Induction of apoptosis in human HepG2 cells assessed as necrotic cells at 10 uM after 24 hrs by Annexin V-FITC/ propidium iodide staining-based flow cytometric analysis (reference value: 1.28%); assay type: functional
HepG2 [6] = assay: Cell cycle arrest in human HepG2 cells assessed as accumulation of cells at G0/G1 phase at 10 uM after 24 hrs by flow cytometric analysis (reference value: 52.31%); assay type: functional
HepG2 [7] = assay: Induction of apoptosis in human HepG2 cells assessed as early apoptotic cells at 10 uM after 24 hrs by Annexin V-FITC/ propidium iodide staining-based flow cytometric analysis (reference value: 0.51%); assay type: functional
HepG2 [8] = assay: Cell cycle arrest in human HepG2 cells assessed as accumulation of cells at S phase at 10 uM after 24 hrs by flow cytometric analysis (reference value: 31.31%); assay type: functional
HepG2 [9] = assay: Induction of apoptosis in human HepG2 cells assessed as viable cells at 10 uM after 24 hrs by Annexin V-FITC/ propidium iodide staining-based flow cytometric analysis (reference value: 96.09%); assay type: functional; conditions: HepG2, 24 h, read-out: Activity
HepG2 [10] = assay: Cell cycle arrest in human HepG2 cells assessed as accumulation of cells at G2/M phase at 10 uM after 24 hrs by flow cytometric analysis (reference value: 16.38%); assay type: functional
HepG2 [11] = assay: Induction of apoptosis in human HepG2 cells assessed as late apoptotic cells at 10 uM after 24 hrs by Annexin V-FITC/ propidium iodide staining-based flow cytometric analysis (reference value: […]); assay type: functional
[12] = Inhibition of recombinant human FGFR preincubated for 5 mins followed by ATP addition and measured after 30 mind by HTRF assay
[13] = target: Vascular endothelial growth factor receptor (Homo sapiens, UniProt P17948+P35916+P35968); assay type: cell-based; conditions: sf9
Description: Inhibition of GST-tagged recombinant human VEGFR (789-end) expressed in baculovirus infected Sf9 insect cells preincubated for 5 mins followed by ATP addition and measured after 30 mins by HTRF assay

[14] = target: T1, Epidermal growth factor receptor; assay: Inhibition of EGFR in human HepG2 cells assessed as suppression of EGFR phosphorylation after 8 hrs by Western blot analysis; assay type: cell-based
[15] = target: Receptor tyrosine-protein kinase erbB-2 (Homo sapiens, UniProt P04626); assay: Inhibition of recombinant human GST-tagged HER2 (676-end) expressed in baculovirus infected Sf9 insect cells preincubated for 5 mins followed by ATP addition and measured after 30 mins by HTRF assay
[16] = target: T1, Epidermal growth factor receptor; assay: Inhibition of EGFR in human HepG2 cells assessed as suppression of ERK phosphorylation up to 2 uM after 8 hrs by Western blot analysis; assay type: cell-based
[17] = target: Epidermal growth factor receptor (Homo sapiens, UniProt P00533, L858R); assay: Inhibition of recombinant human EGFR L858R mutant expressed in baculovirus infected insect cells preincubated for 5 mins followed by ATP addition and measured after 30 mins by HTRF assay; assay type: cell-based
[18] = target: Epidermal growth factor receptor (Homo sapiens, UniProt P00533, T790M); assay: biochemical; assay type: cell-based, Sf21
Chain of Epidermal growth factor receptor (Homo sapiens, UniProt P00533, T790M) (P00533 25-1210 T790M limits assumed): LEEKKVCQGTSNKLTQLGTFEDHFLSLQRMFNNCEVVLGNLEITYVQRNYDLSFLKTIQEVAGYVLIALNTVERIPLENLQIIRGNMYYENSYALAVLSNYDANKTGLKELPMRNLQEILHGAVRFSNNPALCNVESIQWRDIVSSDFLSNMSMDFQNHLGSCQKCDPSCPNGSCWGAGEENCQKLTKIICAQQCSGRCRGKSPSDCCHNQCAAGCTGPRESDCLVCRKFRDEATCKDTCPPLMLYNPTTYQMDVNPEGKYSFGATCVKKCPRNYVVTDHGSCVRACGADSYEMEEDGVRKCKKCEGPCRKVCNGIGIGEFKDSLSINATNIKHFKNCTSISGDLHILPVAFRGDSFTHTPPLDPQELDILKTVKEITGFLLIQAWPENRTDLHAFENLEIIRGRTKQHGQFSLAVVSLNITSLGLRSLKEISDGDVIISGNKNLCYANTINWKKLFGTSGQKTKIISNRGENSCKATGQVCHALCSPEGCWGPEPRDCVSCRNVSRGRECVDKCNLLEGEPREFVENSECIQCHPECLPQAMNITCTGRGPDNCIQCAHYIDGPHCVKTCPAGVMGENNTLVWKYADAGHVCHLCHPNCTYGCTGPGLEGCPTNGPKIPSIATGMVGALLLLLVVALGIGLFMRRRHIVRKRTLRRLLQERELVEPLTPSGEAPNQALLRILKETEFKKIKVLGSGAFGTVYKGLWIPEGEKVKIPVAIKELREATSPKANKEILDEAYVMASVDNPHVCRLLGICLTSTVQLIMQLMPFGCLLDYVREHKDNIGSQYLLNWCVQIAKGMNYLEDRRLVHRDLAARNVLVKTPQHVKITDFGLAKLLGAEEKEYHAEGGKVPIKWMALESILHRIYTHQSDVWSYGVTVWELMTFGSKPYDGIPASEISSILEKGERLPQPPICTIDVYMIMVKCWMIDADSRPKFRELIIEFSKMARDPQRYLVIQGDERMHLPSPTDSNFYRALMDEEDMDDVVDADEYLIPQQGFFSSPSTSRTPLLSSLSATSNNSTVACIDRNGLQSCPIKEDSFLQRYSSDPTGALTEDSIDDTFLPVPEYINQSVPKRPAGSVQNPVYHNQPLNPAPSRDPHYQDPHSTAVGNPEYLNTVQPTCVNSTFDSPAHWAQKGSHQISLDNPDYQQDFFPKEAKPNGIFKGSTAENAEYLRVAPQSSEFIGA

T1 sequence (P00533 whole entry): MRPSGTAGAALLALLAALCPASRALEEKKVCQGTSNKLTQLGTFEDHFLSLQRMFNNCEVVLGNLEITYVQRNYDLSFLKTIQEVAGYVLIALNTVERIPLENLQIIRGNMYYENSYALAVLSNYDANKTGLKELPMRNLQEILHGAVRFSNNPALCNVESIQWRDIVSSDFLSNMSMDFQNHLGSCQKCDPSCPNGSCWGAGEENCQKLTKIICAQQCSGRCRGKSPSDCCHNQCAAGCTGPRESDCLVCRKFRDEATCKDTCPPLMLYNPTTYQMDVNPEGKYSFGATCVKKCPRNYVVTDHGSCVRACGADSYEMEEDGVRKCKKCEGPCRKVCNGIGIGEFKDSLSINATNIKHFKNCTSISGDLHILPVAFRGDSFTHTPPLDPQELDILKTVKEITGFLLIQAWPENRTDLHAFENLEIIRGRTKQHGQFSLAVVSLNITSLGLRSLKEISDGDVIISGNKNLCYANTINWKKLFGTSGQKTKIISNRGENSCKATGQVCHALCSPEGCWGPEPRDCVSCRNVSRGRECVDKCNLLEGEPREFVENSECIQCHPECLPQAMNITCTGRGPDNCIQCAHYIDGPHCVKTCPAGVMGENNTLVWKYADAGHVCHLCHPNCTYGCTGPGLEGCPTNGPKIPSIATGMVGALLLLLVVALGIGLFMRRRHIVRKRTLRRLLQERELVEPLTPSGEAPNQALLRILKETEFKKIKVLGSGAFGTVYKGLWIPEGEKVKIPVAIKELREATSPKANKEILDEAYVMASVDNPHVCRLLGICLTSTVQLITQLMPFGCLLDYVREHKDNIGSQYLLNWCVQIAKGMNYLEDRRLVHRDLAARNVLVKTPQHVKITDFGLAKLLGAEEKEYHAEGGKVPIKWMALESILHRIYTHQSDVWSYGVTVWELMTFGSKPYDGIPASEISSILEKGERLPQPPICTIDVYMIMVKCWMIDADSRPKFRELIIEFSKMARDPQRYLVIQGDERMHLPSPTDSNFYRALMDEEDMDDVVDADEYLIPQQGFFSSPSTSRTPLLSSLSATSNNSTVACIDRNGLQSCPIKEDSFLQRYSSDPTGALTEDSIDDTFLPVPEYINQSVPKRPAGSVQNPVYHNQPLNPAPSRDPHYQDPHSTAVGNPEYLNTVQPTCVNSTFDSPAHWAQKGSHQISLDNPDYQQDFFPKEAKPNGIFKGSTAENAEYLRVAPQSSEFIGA
Chain of Receptor tyrosine-protein kinase erbB-2 (P04626 whole entry): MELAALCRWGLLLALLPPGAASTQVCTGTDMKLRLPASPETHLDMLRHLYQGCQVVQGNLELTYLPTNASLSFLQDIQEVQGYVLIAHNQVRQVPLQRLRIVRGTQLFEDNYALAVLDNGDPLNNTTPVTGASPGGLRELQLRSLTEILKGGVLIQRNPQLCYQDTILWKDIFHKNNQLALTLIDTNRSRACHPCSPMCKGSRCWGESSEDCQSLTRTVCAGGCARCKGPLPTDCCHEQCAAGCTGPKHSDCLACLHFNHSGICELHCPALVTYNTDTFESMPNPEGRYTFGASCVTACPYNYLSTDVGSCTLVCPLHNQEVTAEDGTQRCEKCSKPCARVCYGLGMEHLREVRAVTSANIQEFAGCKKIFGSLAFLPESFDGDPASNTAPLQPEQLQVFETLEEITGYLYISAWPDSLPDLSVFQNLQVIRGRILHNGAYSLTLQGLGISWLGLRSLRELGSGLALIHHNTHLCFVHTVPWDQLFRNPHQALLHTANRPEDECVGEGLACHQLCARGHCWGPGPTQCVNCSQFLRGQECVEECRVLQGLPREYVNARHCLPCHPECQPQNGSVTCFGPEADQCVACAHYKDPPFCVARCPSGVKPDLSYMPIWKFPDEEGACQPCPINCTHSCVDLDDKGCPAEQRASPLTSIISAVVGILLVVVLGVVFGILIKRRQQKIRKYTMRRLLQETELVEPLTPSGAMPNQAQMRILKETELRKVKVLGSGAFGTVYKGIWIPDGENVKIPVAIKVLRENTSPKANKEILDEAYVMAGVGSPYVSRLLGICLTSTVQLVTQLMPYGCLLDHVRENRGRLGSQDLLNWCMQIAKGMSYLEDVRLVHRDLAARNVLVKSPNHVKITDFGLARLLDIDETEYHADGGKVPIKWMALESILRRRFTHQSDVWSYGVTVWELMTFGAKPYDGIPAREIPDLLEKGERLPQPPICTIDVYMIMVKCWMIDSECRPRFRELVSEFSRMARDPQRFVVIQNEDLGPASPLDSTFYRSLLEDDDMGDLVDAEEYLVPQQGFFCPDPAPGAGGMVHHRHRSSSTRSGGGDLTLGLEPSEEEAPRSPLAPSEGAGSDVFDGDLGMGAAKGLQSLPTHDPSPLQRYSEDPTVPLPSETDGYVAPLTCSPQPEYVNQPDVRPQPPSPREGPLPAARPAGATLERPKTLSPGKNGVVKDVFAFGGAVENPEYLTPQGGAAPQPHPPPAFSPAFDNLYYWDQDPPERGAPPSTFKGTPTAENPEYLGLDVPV
Chain of Epidermal growth factor receptor (Homo sapiens, UniProt P00533, L858R) (P00533 25-1210 L858R limits assumed): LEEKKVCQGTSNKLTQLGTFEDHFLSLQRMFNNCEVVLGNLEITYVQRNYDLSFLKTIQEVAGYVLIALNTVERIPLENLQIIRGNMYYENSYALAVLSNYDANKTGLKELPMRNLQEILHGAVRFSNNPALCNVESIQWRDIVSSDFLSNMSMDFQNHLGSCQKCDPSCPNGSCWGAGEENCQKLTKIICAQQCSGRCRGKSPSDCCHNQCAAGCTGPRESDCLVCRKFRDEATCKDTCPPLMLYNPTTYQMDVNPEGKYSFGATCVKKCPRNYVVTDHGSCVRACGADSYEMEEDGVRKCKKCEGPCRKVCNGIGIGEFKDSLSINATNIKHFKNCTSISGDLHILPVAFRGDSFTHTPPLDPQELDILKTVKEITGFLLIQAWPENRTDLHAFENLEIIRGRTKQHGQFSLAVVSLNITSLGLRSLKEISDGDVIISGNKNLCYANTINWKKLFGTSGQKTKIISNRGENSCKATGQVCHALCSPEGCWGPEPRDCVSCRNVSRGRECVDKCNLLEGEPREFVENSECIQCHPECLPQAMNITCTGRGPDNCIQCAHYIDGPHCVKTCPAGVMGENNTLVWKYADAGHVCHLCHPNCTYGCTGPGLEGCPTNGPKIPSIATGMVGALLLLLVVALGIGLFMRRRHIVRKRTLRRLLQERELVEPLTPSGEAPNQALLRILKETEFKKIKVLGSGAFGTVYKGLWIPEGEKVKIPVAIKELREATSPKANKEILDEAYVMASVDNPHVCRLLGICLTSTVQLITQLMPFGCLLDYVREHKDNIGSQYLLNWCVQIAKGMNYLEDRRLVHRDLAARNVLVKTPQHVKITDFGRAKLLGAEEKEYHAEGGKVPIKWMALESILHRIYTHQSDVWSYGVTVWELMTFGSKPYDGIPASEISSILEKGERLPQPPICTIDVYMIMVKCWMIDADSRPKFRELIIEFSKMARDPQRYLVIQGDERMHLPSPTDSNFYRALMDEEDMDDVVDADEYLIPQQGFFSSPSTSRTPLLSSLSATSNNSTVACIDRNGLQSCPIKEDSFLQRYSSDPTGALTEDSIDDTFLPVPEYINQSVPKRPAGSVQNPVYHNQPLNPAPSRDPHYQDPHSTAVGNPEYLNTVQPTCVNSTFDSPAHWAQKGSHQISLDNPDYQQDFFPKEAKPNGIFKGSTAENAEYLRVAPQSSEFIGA

Row | Compound | IC50 (HCT-116) [µM] | IC50 (WI-38) [µM] | IC50 [1] [µM] | IC50 (HepG2 [2]) [µM] | IC50 (MCF7) [µM] | other results
1 | CC(=O)c1cccc(/N=C2\C(=O)Nc3ccc(S(=O)(=O)N4CCOCC4)cc32)c1 | 29 | 177 | 21.4 | 28.6 | 39.2 | –
2 | N/N=C1\C(=O)Nc2ccc(S(=O)(=O)N3CCOCC3)cc21 | 36.3 | 391 | 49.6 | 32.4 | 46.8 | –
3 | O=C1Nc2ccc(S(=O)(=O)N3CCOCC3)cc2C1=O | 60 | 588 | 45.6 | 28.6 | 67.9 | –
4 | O=C1Nc2ccc(S(=O)(=O)N3CCOCC3)cc2/C1=N/c1ccc(Br)cc1 | 15.3 | 372 | 29.4 | 11.9 | 44.8 | –
5 | O=C1Nc2ccc(S(=O)(=O)N3CCOCC3)cc2/C1=N/c1ccc(O)cc1 | 27.3 | 259 | 17.8 | 10.4 | 52.7 | IC50 [3]: 0.751 µM
6 | O=C1Nc2ccc(S(=O)(=O)N3CCOCC3)cc2/C1=N/Nc1ccccc1 | 10.5 | 262 | 20 | 15.6 | 30.3 | Activity (HepG2 [4]): 16.46%; Activity (HepG2 [5]): 2.69%; Activity (HepG2 [6]): 38.92%; Activity (HepG2 [7]): 4.28%; IC50 [3]: 0.046 µM; Activity (HepG2 [8]): 14.77%; viability at 10 µM (HepG2 [9]): 81.4%; Activity (HepG2 [10]): 48.31%; Activity (HepG2 [11]): 9.49%
7 | N=c1oc2ccccc2cc1C(=O)N/N=C1\C(=O)Nc2ccc(S(=O)(=O)N3CCOCC3)cc21 | 6.75 | 132 | 8.21 | 7.82 | 20.8 | IC50 [3]: 0.205 µM
8 | O=C1Nc2ccc(S(=O)(=O)N3CCOCC3)cc2/C1=N/c1ccc(Cl)cc1 | 24.3 | 468 | 23.7 | 11.8 | 44.3 | –
9 | C#Cc1cccc(Nc2ncnc3cc(OCCOC)c(OCCOC)cc23)c1 [ERLOTINIB] | – | – | – | – | – | IC50 [12]: 0.03 µM
10 | COc1ccc(C2=C(C#N)C3=NC4=Nc5ccc(S(=O)(=O)N6CCOCC6)cc5C4=NC3C(O)=C2C#N)cc1 (stereo not drawn) | 9.73 | 324 | 7.24 | 7.3 | 11.9 | IC50 [3]: 0.108 µM
11 | O=C1Nc2ccc(S(=O)(=O)N3CCOCC3)cc2/C1=N/c1cccc(C(F)(F)F)c1 | 15.9 | 226 | 21.2 | 14.3 | 41.1 | –
12 | COc1ccc(-c2c(C#N)c(N)n(/N=C3\C(=O)Nc4ccc(S(=O)(=O)N5CCOCC5)cc43)c(=O)c2C#N)cc1 | 18.1 | 224 | 10.3 | 15 | 33.4 | IC50 [3]: 1.93 µM
13 | Cc1ccc(S(=O)(=O)N/N=C2\C(=O)Nc3ccc(S(=O)(=O)N4CCOCC4)cc32)cc1 | 23.4 | 261 | 14.6 | 24.7 | 38.4 | –
14 | COc1cccc2c1C(=O)c1c(O)c3c(c(O)c1C2=O)C[C@@](O)(C(=O)CO)C[C@@H]3O[C@H]1C[C@H](N)[C@H](O)[C@H](C)O1 [DOXORUBICIN] | 8.29 | – | 5.91 | 7.46 | – | –
15 | O=C1Nc2ccc(S(=O)(=O)N3CCOCC3)cc2/C1=N/NC(=O)c1ccccc1 | 28.9 | 295 | 36.2 | 18.1 | 414 | –
16 | O=C1Nc2ccc(S(=O)(=O)N3CCOCC3)cc2/C1=N/c1ccc(/N=C2\C(=O)Nc3ccc(S(=O)(=O)N4CCOCC4)cc32)cc1 | 7.48 | 203 | 9.16 | 8.84 | 10.9 | IC50 [3]: 1.18 µM
17 | O=S(=O)(c1ccc2[nH]c3nc4ccccc4nc3c2c1)N1CCOCC1 | 19.2 | 418 | 18.9 | 27.2 | 40.8 | –
18 | Cc1ccc(/N=C2\C(=O)Nc3ccc(S(=O)(=O)N4CCOCC4)cc32)cc1 | 18.9 | 309 | 33 | 12.8 | 55.9 | –
19 | N#CCC(=O)N/N=C1\C(=O)Nc2ccc(S(=O)(=O)N3CCOCC3)cc21 | 10.3 | 302 | 9.66 | 7.53 | 27.7 | IC50 [13]: 0.276 µM; Activity (HepG2 [4]): 14.09%; inhibition [14]: Dose-dependent effect; Activity (HepG2 [5]): 3.41%; Activity (HepG2 [6]): 40.31%; Activity (HepG2 [7]): 3.17%; IC50 [3]: 0.023 µM; Activity (HepG2 [8]): 15.58%; viability at 10 µM (HepG2 [9]): 83.6%; IC50 [15]: 0.24 µM; inhibition [16]: Active; Activity (HepG2 [10]): 44.11%; IC50 [17]: 0.0338 µM; IC50 [12]: 0.378 µM; IC50 [18]: 0.137 µM; Activity (HepG2 [11]): 7.51%
20 | COC(=O)c1ccccc1/N=C1\C(=O)Nc2ccc(S(=O)(=O)N3CCOCC3)cc21 | 18.7 | 228 | 23.5 | 14 | 31.4 | –
21 | CC(=O)N/N=C1\C(=O)Nc2ccc(S(=O)(=O)N3CCOCC3)cc21 | 29 | 325 | 18.4 | 27.5 | 56 | –
22 | O=C1Nc2ccc(S(=O)(=O)N3CCOCC3)cc2/C1=N/NS(=O)(=O)c1ccccc1 | 13.3 | 302 | 16.4 | 23.9 | 25.3 | –
23 | O=C1Nc2ccc(S(=O)(=O)N3CCOCC3)cc2/C1=N/c1ccc(C(=O)O)cc1 | 23.6 | 313 | 25.7 | 23.1 | 26.7 | –
24 | CS(=O)(=O)CCNCc1ccc(-c2ccc3ncnc(Nc4ccc(OCc5cccc(F)c5)c(Cl)c4)c3c2)o1 [LAPATINIB] | 5.92 | – | 12.1 | 11.7 | 5.02 | –
